Tests used:
MRCKB = molecular target: T1, MRCKB (Homo sapiens, UniProt Q9Y5S2); assay: MIB/MS kinome profiling of inhibitor-treated OVSAHO cells; assay type: cell-based; settings: 2 μM, 4 hour treatment
T1 construct: endogenous in cells; host or cells: OVSAHO
Experimental: (§1) OVSAHO cells were treated with inhibitors at a dose of 2 μM for 4 hours and kinase inhibition profiles determined by MIB/MS. Bar graph depicts % of kinase bound to MIBs relative to DMSO control as determined by label free quantitation.
(§2) OVSAHO cells were treated with 2 μM of inhibitor for 4 hours and analyzed by MIB/MS. Scatterplot depicts difference in kinase MIB-binding of drug treated relative to control DMSO as determined by Students T-test.
(§3) MIB-based kinome profiling was performed on several of these molecules in HGSOC cells to determine kinome-wide inhibition profiles.
(§4) Experiments using MIB/MS were performed as previously described (Duncan et al., Cell, 2012, 149, 307-321; and Kurimchak et al., Cell Reports, 2016, 16, 1273-1286). Briefly, cells or tumors were lysed on ice in buffer containing 50 mM HEPES (pH 7.5), 0.5% Triton X-100, 150 mM NaCl, 1 mM EDTA, 1 mM EGTA, 10 mM sodium fluoride, 2.5 mM sodium orthovanadate, 1× protease inhibitor cocktail (Roche), and 1% each of phosphatase inhibitor cocktails 2 and 3 (Sigma). Particulate was removed by centrifugation of lysates at 13,000 rpm for 10 minutes at 4° C. and filtration through 0.2 μm syringe filters. Protein concentrations were determined by BCA analysis (Thermo). To compare kinome signatures within and across such large sample sizes, a super-SILAC method was designed (Neubert et al., Nat. Meth., 2010, 7, 361-362) consisting of a cocktail of cancer cell lines that encompasses the activity of the “cancer kinome” to be used as a control for individual samples. Five cancer cell lines were selected from the NCI-60 panel (UACC257, MOLT4, COL0205, ACHN and PC3) that differed in their origin, gene expression patterns and mutation status. The cancer cell lines were labeled using SILAC and mixed equally providing a diverse SILAC ([^13C6,^15N4] arginine (Arg^10) and […] (Lys^8)) heavy kinome reference standard (HKS) to be used repeatedly in kinome profiling assays. An equal amount of the HKS was added to the non-labeled sample (cell, tumor or normal tissue) providing a quantitative strategy to compare kinome activity/levels across samples, amongst treatments and, importantly, across time. […]
(§5) Proteolytic peptides were resuspended in 0.1% formic acid and separated with a Thermo RSLC Ultimate 3000 on a Thermo Easy-Spray C18 PepMap 75 μm×50 cm C-18 2 μm column with a 240 minute gradient of 4-25% acetonitrile with 0.1% formic acid at 300 nL/min and 50° C. Eluted peptides were analyzed by a Thermo Q Exactive plus mass spectrometer utilizing a top 15 methodology in which the 15 most intense peptide precursor ions were subjected to fragmentation.

MRCKA = MRCKA (Homo sapiens, UniProt Q5VT25); assay: as above; assay type: cell-based; parameters: endogenous in cells; host or cells: OVSAHO; settings: 2 μM, 4 hour treatment
Experimental: as §1, §2, §3, §4, §5

[1] = tested on: FAK1, MLC and Paxillin phosphorylation; FAK1 and CHEK1 protein levels; assay: Western blot of signaling in inhibitor-treated HGSOC cells; assay type: cell-based, human; settings: 48 hours
Experimental: COV362 cells were treated with 0.5, 1 or 3 μM of A-674563 or SB-772077 for 48 hours and signaling monitored by western blot.
Samples were harvested in MIB lysis buffer, subjected to SDS-PAGE […] and transferred to PVDF membranes before western blotting with primary antibodies. For pMYPT and pMLC blots, cells were harvested in a buffer containing 1% (w/v) SDS, 50 mM Tris pH 7.5 supplemented with protease and phosphatase inhibitors buffer and were passed through QIAshredder columns (Qiagen, 79654), (Unbekandt et al., Cell Commun. Signal., 2014, 12, 54). For the list of primary antibodies used, see Table 4. Secondary HRP-anti-rabbit and HRP-anti-mouse were obtained from ThermoFisher Scientific. SuperSignal West Pico and Femto Chemiluminescent Substrates (Thermo) were used to visualize blots.

Sequence of MRCKA (Q5VT25 whole entry): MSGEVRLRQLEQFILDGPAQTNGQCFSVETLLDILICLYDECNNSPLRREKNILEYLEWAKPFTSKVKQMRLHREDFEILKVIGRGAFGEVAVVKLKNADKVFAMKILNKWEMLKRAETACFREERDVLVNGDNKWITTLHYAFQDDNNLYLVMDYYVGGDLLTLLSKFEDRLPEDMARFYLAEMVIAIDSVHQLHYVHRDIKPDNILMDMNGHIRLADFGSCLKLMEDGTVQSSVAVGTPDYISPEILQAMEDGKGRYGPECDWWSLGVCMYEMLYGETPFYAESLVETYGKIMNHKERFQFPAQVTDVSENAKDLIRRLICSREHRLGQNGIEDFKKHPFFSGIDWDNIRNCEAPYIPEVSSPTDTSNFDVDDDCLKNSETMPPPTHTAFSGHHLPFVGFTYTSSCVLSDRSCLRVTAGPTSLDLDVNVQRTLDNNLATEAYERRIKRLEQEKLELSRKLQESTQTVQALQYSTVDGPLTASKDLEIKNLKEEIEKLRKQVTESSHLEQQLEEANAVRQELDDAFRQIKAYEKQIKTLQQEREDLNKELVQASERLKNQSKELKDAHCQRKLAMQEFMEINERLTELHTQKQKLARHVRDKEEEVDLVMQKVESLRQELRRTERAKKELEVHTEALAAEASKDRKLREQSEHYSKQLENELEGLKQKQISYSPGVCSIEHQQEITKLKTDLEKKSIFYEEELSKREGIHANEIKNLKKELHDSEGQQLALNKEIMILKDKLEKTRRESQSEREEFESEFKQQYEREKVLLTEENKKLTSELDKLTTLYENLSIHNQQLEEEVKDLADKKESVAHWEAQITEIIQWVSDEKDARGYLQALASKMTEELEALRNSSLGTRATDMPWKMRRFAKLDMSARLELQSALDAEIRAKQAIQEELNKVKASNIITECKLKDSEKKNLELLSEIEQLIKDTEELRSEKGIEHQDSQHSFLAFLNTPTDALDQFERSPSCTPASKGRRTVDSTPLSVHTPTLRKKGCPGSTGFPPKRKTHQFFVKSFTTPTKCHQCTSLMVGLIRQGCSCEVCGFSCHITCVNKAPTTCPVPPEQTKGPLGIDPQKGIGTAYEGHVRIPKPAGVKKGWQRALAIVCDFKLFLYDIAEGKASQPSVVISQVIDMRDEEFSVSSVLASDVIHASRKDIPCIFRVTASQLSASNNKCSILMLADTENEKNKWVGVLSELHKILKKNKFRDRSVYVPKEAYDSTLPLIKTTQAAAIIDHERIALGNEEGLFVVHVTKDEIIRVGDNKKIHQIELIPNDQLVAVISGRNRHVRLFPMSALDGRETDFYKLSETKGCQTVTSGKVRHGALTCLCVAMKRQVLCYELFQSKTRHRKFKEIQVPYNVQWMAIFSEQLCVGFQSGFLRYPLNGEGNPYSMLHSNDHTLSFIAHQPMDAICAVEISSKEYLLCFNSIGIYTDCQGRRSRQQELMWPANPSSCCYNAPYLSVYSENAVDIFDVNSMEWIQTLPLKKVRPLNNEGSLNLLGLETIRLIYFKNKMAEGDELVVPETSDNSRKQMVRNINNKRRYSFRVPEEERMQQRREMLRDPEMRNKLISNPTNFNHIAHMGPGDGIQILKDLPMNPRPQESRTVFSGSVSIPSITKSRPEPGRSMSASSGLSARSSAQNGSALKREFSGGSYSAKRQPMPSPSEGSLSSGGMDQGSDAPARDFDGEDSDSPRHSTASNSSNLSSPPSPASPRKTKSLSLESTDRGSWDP
T1 sequence (Q9Y5S2 whole entry): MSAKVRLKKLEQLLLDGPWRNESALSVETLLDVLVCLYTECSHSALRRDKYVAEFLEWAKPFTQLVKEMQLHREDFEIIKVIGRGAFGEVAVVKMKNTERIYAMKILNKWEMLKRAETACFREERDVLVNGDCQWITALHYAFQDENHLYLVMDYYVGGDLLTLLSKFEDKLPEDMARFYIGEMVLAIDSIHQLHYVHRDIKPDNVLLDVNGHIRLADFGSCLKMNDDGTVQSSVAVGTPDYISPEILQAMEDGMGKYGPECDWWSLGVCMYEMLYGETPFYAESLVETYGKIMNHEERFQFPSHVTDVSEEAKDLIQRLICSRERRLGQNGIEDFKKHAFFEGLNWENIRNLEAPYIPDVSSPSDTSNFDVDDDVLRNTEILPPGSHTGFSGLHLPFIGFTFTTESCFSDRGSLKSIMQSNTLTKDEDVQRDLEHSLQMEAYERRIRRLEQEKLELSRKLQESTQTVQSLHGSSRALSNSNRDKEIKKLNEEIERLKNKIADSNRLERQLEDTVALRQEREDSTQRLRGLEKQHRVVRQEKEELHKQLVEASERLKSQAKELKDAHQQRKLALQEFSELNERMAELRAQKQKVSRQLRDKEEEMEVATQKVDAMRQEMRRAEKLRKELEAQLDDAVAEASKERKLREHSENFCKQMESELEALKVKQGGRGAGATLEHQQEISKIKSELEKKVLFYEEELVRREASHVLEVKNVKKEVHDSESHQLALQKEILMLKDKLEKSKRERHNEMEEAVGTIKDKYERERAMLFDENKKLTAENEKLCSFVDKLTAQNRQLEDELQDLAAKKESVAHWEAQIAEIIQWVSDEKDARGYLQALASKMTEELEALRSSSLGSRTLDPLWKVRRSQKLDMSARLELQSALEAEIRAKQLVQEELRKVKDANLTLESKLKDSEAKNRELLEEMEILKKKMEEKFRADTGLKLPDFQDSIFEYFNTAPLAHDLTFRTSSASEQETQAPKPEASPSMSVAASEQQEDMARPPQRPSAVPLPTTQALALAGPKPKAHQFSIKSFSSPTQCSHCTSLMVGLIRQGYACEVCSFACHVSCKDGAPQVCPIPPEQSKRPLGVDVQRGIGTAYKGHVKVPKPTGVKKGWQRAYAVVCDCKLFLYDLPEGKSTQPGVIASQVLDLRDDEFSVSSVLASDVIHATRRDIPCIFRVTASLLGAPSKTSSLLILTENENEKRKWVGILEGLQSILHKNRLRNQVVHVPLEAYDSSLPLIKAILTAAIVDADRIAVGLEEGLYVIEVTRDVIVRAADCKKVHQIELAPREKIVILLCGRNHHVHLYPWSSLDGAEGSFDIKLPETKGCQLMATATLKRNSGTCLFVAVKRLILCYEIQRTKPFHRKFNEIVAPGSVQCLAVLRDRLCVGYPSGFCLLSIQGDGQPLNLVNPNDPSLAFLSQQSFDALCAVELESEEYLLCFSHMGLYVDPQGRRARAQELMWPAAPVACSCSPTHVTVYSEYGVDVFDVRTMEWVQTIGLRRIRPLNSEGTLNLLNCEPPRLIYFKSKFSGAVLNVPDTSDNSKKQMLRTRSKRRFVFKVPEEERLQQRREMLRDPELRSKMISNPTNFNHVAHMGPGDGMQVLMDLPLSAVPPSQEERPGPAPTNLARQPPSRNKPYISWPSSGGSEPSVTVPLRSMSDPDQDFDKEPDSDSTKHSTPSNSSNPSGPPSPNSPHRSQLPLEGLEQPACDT

`Cc1[nH]nc2ccc(-c3cncc(OC[C@@H](N)Cc4ccccc4)c3)cc12` [A-674563] was tested, and the “MIB-binding of MRCKB relative to DMSO” value (MRCKB) was “Reduced MIB-binding”, the “MIB-binding of MRCKA relative to DMSO” value (MRCKA) was “greatest reduction” and the “FAK1 and CHEK1 protein levels” value ([1]; HGSOC (COV362) cells, 0.5, 1 or 3 μM) was “uniquely reduced”. For the same compound, the “FAK1, MLC and Paxillin phosphorylation” value ([1]; HGSOC (COV362) cells, increasing doses 0.5, 1 or 3 μM) was “inhibited”.
